The target in experiment [1] is Neuropeptide Y receptor type 1 (Homo sapiens, UniProt P25929). The experiment is described as follows: Fluorescence-based dose response cell-based high-throughput screening assay for agonists of NPY-Y1. [Related pubchem assays: 1697 (Screening assay (NPY-Y1 agonists).), 1359 (Screening assay (NPY-Y2 potentiators or agonists).), 1304 (Screening assay (NPY-Y1 potentiators or agonists).), 1704 (Screening assay (CNGC inhibitors).), 1791 (Summary AID.)]. The format is functional.
Neuropeptide Y receptor type 1, sequence (P25929 whole entry): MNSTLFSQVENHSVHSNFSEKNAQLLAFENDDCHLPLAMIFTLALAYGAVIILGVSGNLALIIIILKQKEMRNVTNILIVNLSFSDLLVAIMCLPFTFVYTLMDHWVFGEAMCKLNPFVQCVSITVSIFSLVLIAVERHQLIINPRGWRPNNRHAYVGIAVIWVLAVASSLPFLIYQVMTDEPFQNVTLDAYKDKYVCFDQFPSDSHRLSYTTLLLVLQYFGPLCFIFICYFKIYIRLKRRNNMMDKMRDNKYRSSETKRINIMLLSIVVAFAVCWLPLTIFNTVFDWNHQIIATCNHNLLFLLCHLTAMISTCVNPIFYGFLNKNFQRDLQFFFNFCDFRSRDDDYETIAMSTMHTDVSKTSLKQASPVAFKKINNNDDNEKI

Experiment [2] concerns the target Neuropeptide Y receptor type 2 (Homo sapiens, UniProt P49146). Nature of the experiment: Fluorescence-based counterscreen for agonists of NPY-Y1: cell-based high-throughput dose response assay for agonists of NPY-Y2. The class given is functional.
A further experiment concerns the target T1, Streptokinase A (Streptococcus pyogenes serotype M1, UniProt P10520).
T1 sequence (P10520 whole entry): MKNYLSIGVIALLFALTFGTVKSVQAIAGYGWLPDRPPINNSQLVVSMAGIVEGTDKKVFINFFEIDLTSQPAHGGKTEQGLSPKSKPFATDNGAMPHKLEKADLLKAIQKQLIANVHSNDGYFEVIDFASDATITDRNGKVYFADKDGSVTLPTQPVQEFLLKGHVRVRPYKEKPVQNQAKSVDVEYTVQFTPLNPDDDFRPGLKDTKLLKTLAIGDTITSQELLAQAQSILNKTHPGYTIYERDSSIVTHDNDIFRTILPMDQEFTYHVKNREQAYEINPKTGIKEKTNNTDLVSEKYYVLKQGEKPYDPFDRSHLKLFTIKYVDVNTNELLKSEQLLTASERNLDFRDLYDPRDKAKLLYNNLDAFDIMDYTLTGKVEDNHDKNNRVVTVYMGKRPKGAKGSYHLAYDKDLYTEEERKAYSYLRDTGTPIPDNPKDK
The experiment is described as follows: viability-normalized secreted streptokinase activity reduction – plasminogen activation absorbance, OD405, dose response (AID 1914).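 Also: secreted streptokinase activity via plasminogen activation per viability signal from cell pellet.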 The class given is functional, Streptococcus pyogenes M1 GAS.

The target in experiment [3] is T2, Sentrin-specific protease 8 (Homo sapiens, UniProt Q96LD8).
T2 sequence (Q96LD8 whole entry): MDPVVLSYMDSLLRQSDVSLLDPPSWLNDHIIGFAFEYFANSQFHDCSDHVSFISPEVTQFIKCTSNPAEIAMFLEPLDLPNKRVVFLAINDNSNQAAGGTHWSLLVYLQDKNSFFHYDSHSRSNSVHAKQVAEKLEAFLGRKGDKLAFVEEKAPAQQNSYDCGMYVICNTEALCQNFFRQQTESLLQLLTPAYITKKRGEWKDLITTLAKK
The format is functional.

In experiment [4] the target is T2, Sentrin-specific protease 8. The experiment is described as follows: inhibition of human SENP8 cleavage activity – biochemical, luminescence, SAR follow-up (AID 504501). The format is functional.
For experiment [5], the target named is T3, Sentrin-specific protease 6 (Homo sapiens, UniProt Q9GZR1).
T3 sequence (Q9GZR1 whole entry): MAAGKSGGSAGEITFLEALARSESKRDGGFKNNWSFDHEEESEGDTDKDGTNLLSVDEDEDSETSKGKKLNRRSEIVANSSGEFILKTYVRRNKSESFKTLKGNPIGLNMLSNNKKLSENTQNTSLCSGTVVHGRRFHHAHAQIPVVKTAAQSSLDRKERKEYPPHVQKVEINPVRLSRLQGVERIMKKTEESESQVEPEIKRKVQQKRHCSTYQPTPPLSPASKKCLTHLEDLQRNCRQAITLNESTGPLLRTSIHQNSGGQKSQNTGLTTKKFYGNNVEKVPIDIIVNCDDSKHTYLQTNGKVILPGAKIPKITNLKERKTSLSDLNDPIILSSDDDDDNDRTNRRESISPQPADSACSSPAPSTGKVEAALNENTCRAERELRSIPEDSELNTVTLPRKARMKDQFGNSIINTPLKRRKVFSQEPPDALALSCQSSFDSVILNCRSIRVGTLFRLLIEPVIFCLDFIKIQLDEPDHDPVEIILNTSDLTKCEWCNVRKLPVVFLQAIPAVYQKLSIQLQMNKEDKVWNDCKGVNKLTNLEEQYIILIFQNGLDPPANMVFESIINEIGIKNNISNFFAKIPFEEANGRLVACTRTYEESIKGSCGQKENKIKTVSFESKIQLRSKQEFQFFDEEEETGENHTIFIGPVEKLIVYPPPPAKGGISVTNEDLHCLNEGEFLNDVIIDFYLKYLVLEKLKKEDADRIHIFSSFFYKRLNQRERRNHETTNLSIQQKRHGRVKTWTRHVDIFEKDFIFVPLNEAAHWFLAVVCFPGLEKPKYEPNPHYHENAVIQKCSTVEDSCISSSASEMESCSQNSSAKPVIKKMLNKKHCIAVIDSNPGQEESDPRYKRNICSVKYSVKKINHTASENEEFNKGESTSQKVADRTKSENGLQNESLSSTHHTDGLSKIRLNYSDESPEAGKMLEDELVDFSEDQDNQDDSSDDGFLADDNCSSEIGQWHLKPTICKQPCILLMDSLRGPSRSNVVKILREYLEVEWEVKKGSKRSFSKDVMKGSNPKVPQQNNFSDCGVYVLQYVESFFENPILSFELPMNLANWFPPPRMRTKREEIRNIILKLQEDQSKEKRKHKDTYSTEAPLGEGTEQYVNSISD
Nature of the experiment: SAR Analysis of small molecule inhibitors of Sentrin-specific protease 6 (SENP6) using a Luminescent assay. [Related pubchem assays (depositor defined):AID2582, AID2599]. The format is functional.

In experiment [6] the target is T4, Caspase-3 (Homo sapiens, UniProt P42574).
T4 sequence (P42574 whole entry): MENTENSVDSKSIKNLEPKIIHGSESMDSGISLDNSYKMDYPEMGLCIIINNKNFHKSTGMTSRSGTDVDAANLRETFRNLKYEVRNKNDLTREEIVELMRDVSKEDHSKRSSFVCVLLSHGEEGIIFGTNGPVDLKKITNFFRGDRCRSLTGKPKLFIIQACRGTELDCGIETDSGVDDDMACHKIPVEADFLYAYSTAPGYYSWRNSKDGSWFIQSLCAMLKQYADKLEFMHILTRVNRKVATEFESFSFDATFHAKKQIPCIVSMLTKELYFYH
Nature of the experiment: SAR Analysis of small molecule inhibitors of Sentrin-specific proteases (SENPs) using a Caspase-3 Selectivity assay. [Related pubchem assays (depositor defined):AID2540, AID2599, AID434973, AID489001]. The class given is functional.

A short description of experiment [7]: viability of PTEN-deleted HCT116 cells – cell-based, HCT116 PTEN knockout, dose response (AID 1047).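 Also: HCT116 colon tumor cells with PTEN knocked out; cells exposed to compound for 60 hours before readout; potency for loss of cell viability measured by luminescence.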 The format is functional.
In experiment [8] the target is Photoreceptor-specific nuclear receptor (Homo sapiens, UniProt Q9Y5X4). Nature of the experiment: ligands suppressing NR2E3 nuclear receptor activity – biochemical, TR-FRET, dose response (AID 463256). The format is functional.
Photoreceptor-specific nuclear receptor, sequence (Q9Y5X4 whole entry): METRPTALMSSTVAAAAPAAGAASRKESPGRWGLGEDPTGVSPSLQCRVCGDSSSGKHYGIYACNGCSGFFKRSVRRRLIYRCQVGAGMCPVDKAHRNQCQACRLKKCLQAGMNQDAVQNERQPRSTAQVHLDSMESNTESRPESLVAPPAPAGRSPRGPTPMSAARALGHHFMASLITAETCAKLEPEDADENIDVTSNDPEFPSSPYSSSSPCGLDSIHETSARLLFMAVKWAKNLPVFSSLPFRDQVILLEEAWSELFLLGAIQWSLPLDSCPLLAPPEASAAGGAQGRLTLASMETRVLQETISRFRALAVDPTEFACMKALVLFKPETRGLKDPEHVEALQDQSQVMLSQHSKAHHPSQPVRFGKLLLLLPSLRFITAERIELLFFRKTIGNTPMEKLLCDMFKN
In experiment [9] the target is T5, Sentrin-specific protease 7 (Homo sapiens, UniProt Q9BQF6).
T5 sequence (Q9BQF6 whole entry): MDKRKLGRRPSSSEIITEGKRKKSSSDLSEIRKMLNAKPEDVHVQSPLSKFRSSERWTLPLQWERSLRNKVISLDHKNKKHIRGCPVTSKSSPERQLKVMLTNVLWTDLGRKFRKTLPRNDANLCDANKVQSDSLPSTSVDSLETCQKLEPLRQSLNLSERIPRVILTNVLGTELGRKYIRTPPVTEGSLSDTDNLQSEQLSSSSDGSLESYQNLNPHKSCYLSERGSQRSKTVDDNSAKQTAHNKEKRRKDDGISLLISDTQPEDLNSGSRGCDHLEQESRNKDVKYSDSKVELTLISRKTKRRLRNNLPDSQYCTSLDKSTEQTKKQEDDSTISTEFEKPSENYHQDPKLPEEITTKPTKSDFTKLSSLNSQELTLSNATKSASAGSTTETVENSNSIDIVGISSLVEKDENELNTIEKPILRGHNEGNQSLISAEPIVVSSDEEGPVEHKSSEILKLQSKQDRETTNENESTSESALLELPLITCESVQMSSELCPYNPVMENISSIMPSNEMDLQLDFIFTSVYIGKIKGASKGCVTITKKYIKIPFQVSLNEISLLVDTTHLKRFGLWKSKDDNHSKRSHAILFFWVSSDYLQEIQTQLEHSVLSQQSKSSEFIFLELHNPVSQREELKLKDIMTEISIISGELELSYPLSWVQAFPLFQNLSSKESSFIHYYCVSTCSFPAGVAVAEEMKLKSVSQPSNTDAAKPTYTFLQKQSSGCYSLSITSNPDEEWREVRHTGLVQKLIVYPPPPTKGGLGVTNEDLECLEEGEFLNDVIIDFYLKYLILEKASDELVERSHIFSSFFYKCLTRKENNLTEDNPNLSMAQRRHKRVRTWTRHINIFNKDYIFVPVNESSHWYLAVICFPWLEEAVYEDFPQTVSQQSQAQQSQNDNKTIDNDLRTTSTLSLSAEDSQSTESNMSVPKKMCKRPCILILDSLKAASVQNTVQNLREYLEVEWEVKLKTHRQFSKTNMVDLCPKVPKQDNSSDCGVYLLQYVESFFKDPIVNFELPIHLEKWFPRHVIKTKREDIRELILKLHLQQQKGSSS
Nature of the experiment: inhibition of human SENP7 cleavage activity – biochemical, luminescence, SAR follow-up (AID 504497). The class given is functional.

Experiment [10] deals with T4, Caspase-3. The format is functional.
Experiment [11] concerns the target T3, Sentrin-specific protease 6. The class given is functional.
A short description of experiment [12]: viability of HCT116 lacking mutant beta-catenin – cell-based, human colon tumor, dose response (AID 1045).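 Also: HCT116 colon tumor cells with beta catenin knocked out; cells exposed to compound for 60 hours.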 The format is functional.
Experiment [13] deals with Peroxisome proliferator-activated receptor gamma/Nuclear receptor corepressor 2 (Homo sapiens, UniProt P37231+Q9Y618). The experiment is described as follows: Counterscreen for NR2E3 inverse agonists: TR-FRET-based biochemical high throughput dose response assay to identify inverse agonists of the interaction between peroxisome proliferator-activated receptor gamma (PPARg) and nuclear receptor co-repressor 2 (NCOR2). The format is functional. For orientation: Counterscreens check selectivity or assay interference.
Peroxisome proliferator-activated receptor gamma/Nuclear receptor corepressor 2, sequence (P37231 whole entry): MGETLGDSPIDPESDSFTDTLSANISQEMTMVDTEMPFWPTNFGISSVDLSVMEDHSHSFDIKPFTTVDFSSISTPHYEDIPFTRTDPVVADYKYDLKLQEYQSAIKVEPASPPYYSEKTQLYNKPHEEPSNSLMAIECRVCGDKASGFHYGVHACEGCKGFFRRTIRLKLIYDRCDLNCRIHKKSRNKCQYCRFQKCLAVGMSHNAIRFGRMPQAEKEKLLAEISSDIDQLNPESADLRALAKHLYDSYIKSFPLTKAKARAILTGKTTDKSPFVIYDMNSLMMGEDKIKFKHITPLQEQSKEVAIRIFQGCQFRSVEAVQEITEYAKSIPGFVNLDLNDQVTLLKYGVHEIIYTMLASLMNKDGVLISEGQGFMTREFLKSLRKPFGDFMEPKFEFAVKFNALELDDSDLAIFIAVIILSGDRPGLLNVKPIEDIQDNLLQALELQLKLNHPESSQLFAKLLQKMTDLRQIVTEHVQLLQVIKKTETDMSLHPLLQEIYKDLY
Peroxisome proliferator-activated receptor gamma/Nuclear receptor corepressor 2, sequence (Q9Y618 whole entry): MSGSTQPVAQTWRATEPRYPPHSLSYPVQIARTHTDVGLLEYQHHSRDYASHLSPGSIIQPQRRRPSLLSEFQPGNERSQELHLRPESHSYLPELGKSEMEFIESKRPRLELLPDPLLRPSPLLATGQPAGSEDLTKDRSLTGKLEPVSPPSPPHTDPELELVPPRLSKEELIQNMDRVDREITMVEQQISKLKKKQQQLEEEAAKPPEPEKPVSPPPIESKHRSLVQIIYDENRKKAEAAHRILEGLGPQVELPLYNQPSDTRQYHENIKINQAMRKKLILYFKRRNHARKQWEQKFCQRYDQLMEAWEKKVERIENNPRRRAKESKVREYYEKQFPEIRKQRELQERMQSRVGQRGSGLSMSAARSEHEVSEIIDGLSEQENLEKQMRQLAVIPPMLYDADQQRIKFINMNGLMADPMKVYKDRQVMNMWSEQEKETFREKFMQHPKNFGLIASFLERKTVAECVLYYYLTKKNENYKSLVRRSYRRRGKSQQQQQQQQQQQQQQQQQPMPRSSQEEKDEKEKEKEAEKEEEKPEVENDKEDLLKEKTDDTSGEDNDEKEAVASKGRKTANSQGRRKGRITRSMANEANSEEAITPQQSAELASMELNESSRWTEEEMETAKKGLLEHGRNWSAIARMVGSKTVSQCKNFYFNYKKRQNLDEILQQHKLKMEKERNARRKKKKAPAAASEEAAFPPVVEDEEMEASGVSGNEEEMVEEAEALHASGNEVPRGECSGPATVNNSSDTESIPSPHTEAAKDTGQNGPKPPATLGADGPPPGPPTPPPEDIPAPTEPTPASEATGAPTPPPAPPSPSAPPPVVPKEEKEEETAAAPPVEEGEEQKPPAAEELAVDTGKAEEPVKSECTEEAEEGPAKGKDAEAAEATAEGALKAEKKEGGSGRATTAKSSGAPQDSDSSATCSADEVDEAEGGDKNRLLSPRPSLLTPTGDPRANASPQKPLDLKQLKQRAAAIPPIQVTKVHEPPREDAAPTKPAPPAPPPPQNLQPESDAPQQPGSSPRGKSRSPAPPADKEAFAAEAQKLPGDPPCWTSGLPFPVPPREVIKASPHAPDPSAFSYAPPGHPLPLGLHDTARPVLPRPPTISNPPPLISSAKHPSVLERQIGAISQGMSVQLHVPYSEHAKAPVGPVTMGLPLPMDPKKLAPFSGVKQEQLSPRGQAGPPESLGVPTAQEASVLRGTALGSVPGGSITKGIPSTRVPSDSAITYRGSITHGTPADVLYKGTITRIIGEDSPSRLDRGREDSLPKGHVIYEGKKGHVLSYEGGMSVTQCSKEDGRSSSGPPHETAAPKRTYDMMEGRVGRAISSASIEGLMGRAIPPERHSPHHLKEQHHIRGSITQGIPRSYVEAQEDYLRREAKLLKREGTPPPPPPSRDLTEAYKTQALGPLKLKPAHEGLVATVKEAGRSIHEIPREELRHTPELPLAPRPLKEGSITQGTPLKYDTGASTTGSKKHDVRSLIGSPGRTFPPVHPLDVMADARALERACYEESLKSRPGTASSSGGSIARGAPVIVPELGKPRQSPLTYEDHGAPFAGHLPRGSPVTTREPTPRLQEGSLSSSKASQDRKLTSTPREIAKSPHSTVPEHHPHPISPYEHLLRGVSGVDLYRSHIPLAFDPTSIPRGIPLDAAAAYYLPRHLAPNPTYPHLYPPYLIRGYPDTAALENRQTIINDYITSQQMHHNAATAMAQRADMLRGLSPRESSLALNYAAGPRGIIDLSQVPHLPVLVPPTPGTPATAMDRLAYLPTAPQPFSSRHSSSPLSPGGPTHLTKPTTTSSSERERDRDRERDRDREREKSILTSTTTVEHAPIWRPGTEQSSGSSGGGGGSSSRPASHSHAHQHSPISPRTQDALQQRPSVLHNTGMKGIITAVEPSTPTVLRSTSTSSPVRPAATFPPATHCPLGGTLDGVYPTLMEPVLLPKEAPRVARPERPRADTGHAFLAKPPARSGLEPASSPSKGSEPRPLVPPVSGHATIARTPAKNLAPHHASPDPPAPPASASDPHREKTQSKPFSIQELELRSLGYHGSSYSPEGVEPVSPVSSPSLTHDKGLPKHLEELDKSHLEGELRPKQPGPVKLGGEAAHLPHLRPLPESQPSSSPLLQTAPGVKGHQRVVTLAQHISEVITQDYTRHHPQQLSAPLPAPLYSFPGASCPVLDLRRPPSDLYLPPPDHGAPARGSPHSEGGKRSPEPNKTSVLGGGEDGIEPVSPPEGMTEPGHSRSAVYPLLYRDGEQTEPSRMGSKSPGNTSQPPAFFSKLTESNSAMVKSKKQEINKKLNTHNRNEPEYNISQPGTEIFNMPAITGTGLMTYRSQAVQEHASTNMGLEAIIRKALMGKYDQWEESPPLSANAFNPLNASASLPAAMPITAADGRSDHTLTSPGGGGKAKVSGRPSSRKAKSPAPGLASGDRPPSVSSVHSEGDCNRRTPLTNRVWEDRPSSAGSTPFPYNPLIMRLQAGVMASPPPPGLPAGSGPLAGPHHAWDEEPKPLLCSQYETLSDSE

Experiment [14] has as its target T5, Sentrin-specific protease 7. The class given is functional.
In experiment [15] the target is T6, Long-chain-fatty-acid--AMP ligase FadD28 (Mycobacterium tuberculosis, UniProt P9WQ59).
T6 sequence (P9WQ59 whole entry): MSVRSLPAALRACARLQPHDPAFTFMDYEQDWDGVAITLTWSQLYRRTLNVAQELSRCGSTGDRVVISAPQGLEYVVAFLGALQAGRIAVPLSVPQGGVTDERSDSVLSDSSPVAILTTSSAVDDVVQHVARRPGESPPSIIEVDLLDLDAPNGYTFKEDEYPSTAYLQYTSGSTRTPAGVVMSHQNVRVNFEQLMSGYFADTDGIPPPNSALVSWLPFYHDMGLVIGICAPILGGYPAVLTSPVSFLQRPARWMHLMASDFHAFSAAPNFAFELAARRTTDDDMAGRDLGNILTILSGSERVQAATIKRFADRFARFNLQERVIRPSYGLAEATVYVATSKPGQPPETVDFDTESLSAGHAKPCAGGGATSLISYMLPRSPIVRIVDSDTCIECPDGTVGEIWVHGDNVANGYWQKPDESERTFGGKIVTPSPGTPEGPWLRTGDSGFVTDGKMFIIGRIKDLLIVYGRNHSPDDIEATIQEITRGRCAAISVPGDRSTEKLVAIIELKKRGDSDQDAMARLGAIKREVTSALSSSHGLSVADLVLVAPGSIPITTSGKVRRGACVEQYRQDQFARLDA
The experiment is described as follows: Fluorescence polarization aasay to screen for inhibitors that compete for the binding of FadD28 to a bisubstrate Measured in Biochemical System Using Plate Reader - 2147-01_Inhibitor_Dose_CherryPick_Activity. The format is functional, Mycobacterium tuberculosis H37Rv. For orientation: In fluorescence polarisation assays a small probe gives low polarisation when free and higher when bound to something large.

A further experiment relates to H4. Nature of the experiment: Luminescence Cell-Based Dose Response HTS to Identify Activators of 5'UTR Stem-Loop Driven Prion Protein mRNA Translation in H4 Neuroglioblastoma Cells. [Related pubchem assays: 1829 (Project Summary), 1814 (Primary HTS)]. The format is functional. As to conditions: Homo sapiens.
Experiment [16] in a line: Luminescence Cell-Based Dose Response HTS to Identify Activators of Luciferase Translation or Activity in H4 […] Cells. [Related pubchem assays: 1829 (Project Summary), 1814 (Primary HTS)]. The class given is functional.
A short description of experiment [17]: Luminescence Cell-Based Dose Response to Identify Activators of Luciferase Translation or Activity in H4-C Neuroglioblastoma Cells. [Related pubchem assays: 1829 (Project Summary), 1814 (Primary HTS)]. The class given is functional.
A short description of experiment [18]: Luminescence Cell-Based Dose Response to Identify Activators of 5'UTR Stem-Loop Driven Prion Protein mRNA Translation in H4-C Neuroglioblastoma Cells. [Related pubchem assays: 1829 (Project Summary), 1814 (Primary HTS)]. The class given is functional.
Experiment [19] is described as follows: Luminescence Cell-Based Dose Confirmation to Identify Activators of 5'UTR Stem-Loop Driven Alpha-Synuclein mRNA Translation in H4 Neuroglioblastoma Cells. [Related pubchem assays: 1829 (Project Summary), 1814 (Primary HTS)]. The class given is functional.

Drawing on ChEMBL document CHEMBL1201862, “PubChem BioAssay data set” (2004), this text covers EC50, IC50 and AC50 for 3 compounds.

Activity calls are given as the source filed them. A value given as a limit tells only on which side of the number the result lay.

Neuropeptide Y receptor type 2, sequence (P49146 whole entry): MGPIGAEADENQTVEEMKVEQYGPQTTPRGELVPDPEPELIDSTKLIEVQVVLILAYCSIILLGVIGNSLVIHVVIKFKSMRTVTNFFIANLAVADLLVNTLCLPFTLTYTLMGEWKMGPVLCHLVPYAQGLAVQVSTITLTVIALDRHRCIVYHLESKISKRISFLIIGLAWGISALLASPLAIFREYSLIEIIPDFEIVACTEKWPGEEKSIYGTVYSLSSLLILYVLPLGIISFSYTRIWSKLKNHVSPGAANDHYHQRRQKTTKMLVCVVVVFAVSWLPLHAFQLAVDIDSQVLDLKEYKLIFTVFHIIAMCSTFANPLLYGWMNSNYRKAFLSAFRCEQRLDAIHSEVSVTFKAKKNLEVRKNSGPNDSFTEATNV

Consider `CCOc1ccc(NC(=S)NNC(=S)Nc2cccc(C(F)(F)F)c2)cc1`, for which the EC50 is 27.3 µM (not active) in [1], > 35.4 µM (not active) in [2] and > 150 µM (not active) on Streptokinase A.

Consider `Cc1cc2nc(-c3ccc(SCC(=O)Nc4ccc(S(=O)(=O)NC5CC5)cc4)nc3)[nH]c2cc1C`, for which the IC50 was > 100 µM (inactive) in [3]; > 99 µM (inactive) in experiment [4]; > 99 µM (inactive) in experiment [5]; 14.4 µM (active) at Caspase-3 [6]; > 39.8 µM (not active) in experiment [8]; 2.75 µM (active) in experiment [9]. Moreover, the IC50 on Caspase-3 [10] was 21.3 µM (active); in experiment [11] it was > 100 µM (inactive); in experiment [13], 4.15 µM (active); in experiment [14], 2.43 µM (active). The half-maximal effective concentration (EC50) in [7] is 22.7 µM (active); in experiment [12], 24.7 µM (active).

Turning to `O=C(O)c1ccc(N/N=C/C(Br)=C/c2ccccc2)cc1`, the AC50 in [15] is > 100 µM (inactive). Moreover, the EC50 in the experiment on H4 was 7.2 µM (active); in [16], < 0.1 µM (active); in experiment [17] it was 0.368 µM (active); in experiment [18], 0.316 µM (active); in [19] it was 0.425 µM (active).

The term EC50 denotes the concentration that produces a half-maximal response. In general, IC50 refers to the concentration that inhibits the measured activity by half. A word on the AC50: it is the midpoint of the concentration-response curve, whichever way the signal moves.
